# Measured values reported in patent US9458105B2, “Inhibitors of Bruton's tyrosine kinase” (Hoffmann-La Roche Inc., priority 2012, dated 2016).
# Target: Bruton's Tyrosine Kinase (inactivated state) (Homo sapiens (Human), UniProt Q06187)
# Assay: Bruton's Tyrosine Kinase (BTK) Inhibition TR-FRET (Time Resolved FRET) competition assay
# Type: binding
# Details: BTK-Eu / Kinase Tracer 178 competition, incubated 18-24 h at 14° C.
# Experimental: Bruton's Tyrosine Kinase (BTK) Inhibition TR-FRET (Time Resolved FRET) Assay
# This BTK competition assay measures compound potency (IC50) for the inactivated state of Bruton's Tyrosine Kinase using FRET (Forster/Fluorescence Resonance Energy Transfer) technology. The BTK-Eu complex was incubated on ice one hour prior to use at a starting concentration of 50 nM BTK-Bioease™: 10 nM Eu-streptavidin (Perkin-Elmer Catalog #AD0062). The assay buffer consisted of 20 mM HEPES (pH 7.15), 0.1 mM DTT, 10 mM MgCl2, 0.5 mg/ml BSA with 3% Kinase Stabilizer (Fremont Biosolutions, Catalog #STB-K02). After 1 h, the reaction mixture from above was diluted 10 fold in assay buffer to make 5 nM BTK: 1 nM Eu-Streptavidin complex (donor fluorophore). 18 μl of a mixture of 0.11 nM BTK-Eu and 0.11 nM Kinase Tracer 178 (Invitrogen, Catalog #PV5593,) with BTK-Eu alone as no negative control, was then dispensed into 384-well flat bottom plates (Greiner, 784076). Compounds to be tested in assay were prepared as 10× concentrations and serial dilution in half-log increments was performed in DMSO so as to generate 10 point curves. To initiate the FRET reaction, compounds prepared as 10× stock in DMSO was added to the plates and the plates were incubated 18-24 h at 14° C.
# After the incubation the plates were read on a BMG Pherastar Fluorescent plate reader (or equivalent) and used to measure the emission energy from the europium donor fluorophore (620 nm emission) and the FRET (665 nm emission). The negative control well values were averaged to obtain the mean minimum. The positive “no inhibitor” control wells were averaged to obtain the mean maximum. Percent of maximal FRET was calculated using following equation: % max FRET=100×[(FSRcmpd−FSRmean min)/(FSRmean max−FSRmean min)]
# where FSR=FRET Signal ratio. % Max FRET curves were plotted in Activity Base (Excel) and the IC50(%), hill slope, z′ and % CV were determined. The mean IC50 and standard deviation will be derived from duplicate curves (singlet inhibition curves from two independent dilutions) using Microsoft Excel.
# Representative compound data for this assay are listed below in Table II.
# Sequence of Bruton's Tyrosine Kinase (inactivated state) (Q06187 whole entry): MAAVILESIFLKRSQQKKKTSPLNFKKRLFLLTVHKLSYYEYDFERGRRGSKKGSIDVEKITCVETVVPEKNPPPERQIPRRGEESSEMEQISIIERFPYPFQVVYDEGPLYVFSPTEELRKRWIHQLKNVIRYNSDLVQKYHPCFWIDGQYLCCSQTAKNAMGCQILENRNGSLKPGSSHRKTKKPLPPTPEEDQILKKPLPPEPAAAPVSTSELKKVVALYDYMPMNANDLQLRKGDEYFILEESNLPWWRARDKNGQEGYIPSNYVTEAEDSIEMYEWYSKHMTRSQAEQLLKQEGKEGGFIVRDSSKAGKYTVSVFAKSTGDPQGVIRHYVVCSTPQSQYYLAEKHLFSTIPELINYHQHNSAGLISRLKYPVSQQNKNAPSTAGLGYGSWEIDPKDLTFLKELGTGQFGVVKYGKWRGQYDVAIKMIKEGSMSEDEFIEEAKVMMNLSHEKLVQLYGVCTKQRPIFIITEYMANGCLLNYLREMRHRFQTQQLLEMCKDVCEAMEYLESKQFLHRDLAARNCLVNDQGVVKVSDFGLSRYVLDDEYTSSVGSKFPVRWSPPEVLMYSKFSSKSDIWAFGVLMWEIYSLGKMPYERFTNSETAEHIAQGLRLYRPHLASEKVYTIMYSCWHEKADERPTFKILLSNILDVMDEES
row,Structure (SMILES),IC50 [µM]
1,"CC(C)(C)c1cc(F)c2c(=O)n(Cc3c(F)cc(-c4cc[nH]c(=O)c4)cc3F)ncc2c1 [Compound I-4, 6-tert-Butyl-2-[2,6-difluoro-4-(2-oxo-1,2-dihydro-pyridin-4-yl)-benzyl]-8-fluoro-2H-phthalazin-1-one]",13.3
2,"Cc1c(NC(=O)c2ccc(C(C)(C)C)cc2)cccc1-c1cc[nH]c(=O)c1 [Compound I-7, 4-tert-Butyl-N-[2-methyl-3-(2-oxo-1,2-dihydro-pyridin-4-yl)-phenyl]-benzamide]",6.91
3,"CC(C)(C)c1cc(F)c2c(=O)n(Cc3ccc(-c4cc[nH]c(=O)c4)c(CO)c3)ncc2c1 [Compound I-8, 6-tert-Butyl-8-fluoro-2-[3-hydroxymethyl-4-(2-oxo-1,2-dihydro-pyridin-4-yl)-benzyl]-2H-phthalazin-1-one]",> 100
4,"CC(C)(C)c1cc(F)c2c(=O)n(Cc3cc(CO)c(-c4cc[nH]c(=O)c4)cc3F)ncc2c1 [Compound I-9, 6-tert-Butyl-8-fluoro-2-[2-fluoro-5-hydroxymethyl-4-(2-oxo-1,2-dihydro-pyridin-4-yl)-benzyl]-2H-phthalazin-1-one]",52.3

# The next compounds have a lower IC50 than those just listed; values first:
row,IC50 [µM],Structure (SMILES)
1,3.32,"CC(C)(C)c1cc(F)c2c(=O)n(Cc3ccc(-c4cc[nH]c(=O)c4)cc3)ncc2c1 [Compound I-1, 6-tert-Butyl-8-fluoro-2-[4-(2-oxo-1,2-dihydro-pyridin-4-yl)-benzyl]-2H-phthalazin-1-one]"
2,0.983,"CC(C)(C)c1cc(F)c2c(=O)n(Cc3ccc(-c4cc[nH]c(=O)c4)cc3F)ncc2c1 [Compound I-2, 6-tert-Butyl-8-fluoro-2-[2-fluoro-4-(2-oxo-1,2-dihydro-pyridin-4-yl)-benzyl]-2H-phthalazin-1-one]"
3,0.366,"CC(C)(C)c1cc(F)c2c(=O)n(-c3cccc(-c4cc[nH]c(=O)c4)c3CO)ncc2c1 [Compound I-3, 6-tert-Butyl-8-fluoro-2-[2-hydroxymethyl-3-(2-oxo-1,2-dihydro-pyridin-4-yl)-phenyl]-2H-phthalazin-1-one]"
4,3.14,"CC(C)(C)c1cc(F)c2c(=O)n(Cc3ccc(-c4cc[nH]c(=O)c4)cc3CO)ncc2c1 [Compound I-5, 6-tert-Butyl-8-fluoro-2-[2-hydroxymethyl-4-(2-oxo-1,2-dihydro-pyridin-4-yl)-benzyl]-2H-phthalazin-1-one]"
5,0.0142,"Cn1cc(-c2cc(-c3ccc(Cn4ncc5cc(C(C)(C)C)cc(F)c5c4=O)c(F)c3)cc(=O)[nH]2)cn1 [Compound I-6, 6-tert-Butyl-8-fluoro-2-{2-fluoro-4-[6-(1-methyl-1H-pyrazol-4-yl)-2-oxo-1,2-dihydro-pyridin-4-yl]-benzyl}-2H-phthalazin-1-one]"
6,0.00711,"Cn1cc(-c2cc(-c3ccc(CN4Cc5cc(C(C)(C)C)sc5C4=O)c(F)c3)cc(=O)[nH]2)cn1 [Compound I-10, 2-tert-Butyl-5-{2-fluoro-4-[6-(1-methyl-1H-pyrazol-4-yl)-2-oxo-1,2-dihydro-pyridin-4-yl]-benzyl}-4,5-dihydro-thieno[2,3-c]pyrrol-6-one]"
